Data set [1] can be described thus: oral administration to rats, pharmacokinetics compared with Mirabegron. The following applies: oral administration to Sprague Dawley rats, compared to the parent compound Mirabegron. It counts as in vivo.
Data set [2] can be described thus: esterase cleavage / half-life in rat blood plasma. It is filed as in vitro ADME. The conditions noted are these: for esterase cleavage: after 1 h. How it is done: (§1) Almost 100 % esterase cleavage was found in rat blood plasma after 1 h, whereas about 70 % of the prodrug was cleaved within 4 hours in human blood plasma.
(§2) The half-life of Benzoyloxy(methoxy)carbonyl-Nphenethyl-Mirabegron in rat blood plasma and in human blood plasma was less than 0.5 h. Almost 100 % esterase cleavage was found in rat blood plasma after 1 h, whereas almost 100 % of the prodrug was cleaved within 4 hours in human blood plasma.

Data set [3] is described as follows: esterase cleavage / half-life in human blood plasma. It counts as in vitro ADME. The following applies: for prodrug cleaved (esterase cleavage): within 4 hours. How it is done:
as §1, §2

SMILES strings stand for the structures.

These results are taken from EP3360866B1, “[…]” (Alfred E. Tiefenbacher (GmbH & Co. KG), priority 2017, dated 2018).

Turning to `CC(OC(=O)C(C)C)OC(=O)N(CCc1ccc(NC(=O)Cc2csc(N)n2)cc1)C[C@H](O)c1ccccc1` (stereo partly shown) [Enacarbil-Nphenethyl-Mirabegron], in data set [1], the Cmax entry is on record as “higher” and the Tmax result is recorded as “earlier”. Moreover, in data set [2], the half-life result is recorded as “less than 0.5 h” and the esterase cleavage is on record as about 100%. Also, in data set [3], the half-life entry is recorded as “less than 2.5 h” and the “prodrug cleaved (esterase cleavage)” value is recorded as “about 70%”.

As to `Nc1nc(CC(=O)Nc2ccc(CCN(C[C@H](O)c3ccccc3)C(=O)OCOC(=O)c3ccccc3)cc2)cs1` [Benzoyloxy(methoxy)carbonyl-Nphenethyl-Mirabegron], in data set [2], the half-life result is given as “less than 0.5 h” and the esterase cleavage is about 100%. In addition, in data set [3], the half-life result is reported as “less than 0.5 h” and the “prodrug cleaved (esterase cleavage)” value is given as about 100%.
